In patent publication US20260035385A1, “BENZO NITROGEN-CONTAINING HETEROAROMATIC RING DERIVATIVE AND USE THEREOF IN MEDICINE” (Xizang Haisco Pharmaceutical Co., Ltd., priority 2021, published 2026):

Key:
[1] = test system: complement alternative pathway; assay: Biological Test Example 2: complement alternative pathway inhibition, IBL alternative pathway kit, serum from healthy volunteers; type: biochemical, human; details: LPS-coated plate, 37 °C 1 h, read-out: IC50 for inhibiting alternative pathway
Method: The inhibitory effect of the compounds on the complement alternative pathway was detected using the IBL alternative pathway kit (COMPL AP330 RUO). Serum from healthy volunteers was collected and 1 portion was diluted with a buffer of 20 mM EDTA in gelatin (0.15 mM CaCl2, 141 mM NaCl, 4.5 mM MgCl2, 4.2 mM HEPES, and 0.1% gelatin at pH 7.4) to 50% (v/v), and 1 portion was diluted to 50% (v/v) with a buffer of 20 mM EGTA in gelatin. The compounds were prepared in DMSO to a working solution 100 times the final concentration. Before use, 50% of the above serum was diluted 1/18 with the AP diluent in the kit. 1 part of the compound working solution (v/v) or DMSO (positive control PC) was added to 99 parts of the diluted serum containing EGTA for pretreatment for 30 min, and 1 part of DMSO (v/v) was added to 99 parts of the diluted serum containing EDTA, as negative control (NC). The serum pretreated with the above compounds (or DMSO) was added at […] to the LPS-coated 96-well plate, incubated at 37° C. for 1 h, and the plate was washed 3 times with washing solution in the kit; the conjugated chromogenic substrate was added according to the instruction in the kit, and the absorbance was read at 405 nm with a microplate reader. The inhibitory activity of the compounds on alternative pathway was calculated using the following formula.
OD^CPD was the OD value when the inhibitor was added, OD^NC was the OD value of the negative control, and OD^PC was the OD value of the positive control.
Graphpad was used to perform nonlinear regression on the final concentrations and inhibition rates of the compounds to obtain the IC50 of the compounds for inhibiting the alternative pathway.

C3a levels in mice = assay: Biological Test Example 4: LPS mouse model, plasma C3a level; type: in vivo; details: compound given 3.5 h after LPS, plasma at 7.5 h
Method: Mice were intravenously given 0.5 mg/ml LPS solution at 100 μL/mouse to create a model, and the naive group was given physiological saline. Mice were given the compounds 3.5 h after injection of physiological saline/LPS solution, and the naive group and model group were given vehicle (0.5% MC+0.5% Tween 80). 7.5 h after the mice in each group were injected with physiological saline/LPS, blood was collected from the orbit and the plasma was separated. The plasma C3a level was detected using mouse C3a ELISA kit (NOVUS/NBP2-70037), and the inhibition rate of C3a was calculated. The formula is as follows: […]
Among them: Ct, C3a level after administration; Cnaive, C3a level of naive group; Cmodel, C3a level of model group.

FB = FB (Homo sapiens, UniProt P00751); assay: biochemical
[2] = Pharmacokinetic test in mice; type: in vivo; details: male, C57, mouse, plasma, po, i.g. (10 mg/kg)
Method: Test objective: In this experiment, a single dose of test compounds was administered to C57 mice intravenously and intragastrically, the concentrations of the test compounds in plasma of mice were measured, and the pharmacokinetic characteristics of the test compounds in mice were evaluated.
Experimental animals: Male C57 mice, 20-25 g, 6-8 weeks old, 18 mice/compound. purchased from Chengdu Ddossy Experimental Animals Co., Ltd.
Experimental method: On the day of the experiment, 18 C57 mice were randomly grouped according to their body weight. The animals were fasted with water available for 12 to 14 hours one day before the administration of a test compound, and were fed 4 hours after the administration.
Sampling: Before and after the administration, 0.08 mL of blood sample was drawn from the orbit under isoflurane anesthesia, and placed in an EDTAK2 centrifuge tube. Centrifugation was carried out at 5000 rpm at 4° C. for 10 min, and the plasma was collected.
Time points for plasma collection in IV&PO group: 0, 5 min, 15 min, 30 min, 1 h, 2 h, 4 h, 6 h, 8h, and 24 h.
(§1) Before analysis and detection, all samples were stored at −60° C. The samples were analyzed quantitatively by LC-MS/MS.

[3] = Pharmacokinetic test of dogs; type: in vivo; details: male, beagle, dog, plasma, po, i.g. (5 mg/kg)
Method: (§2) Test objective: In this experiment, a single dose of test compounds was administered to beagle dogs intravenously and intragastrically, and the concentrations of the test compounds in plasma of the beagle dogs were measured to evaluate pharmacokinetic characteristics of the test compounds in the beagle dogs.
Experimental animals: Male beagle dogs, 8-11 kg, 1-3 years old, 6 dogs/compound. purchased from Beijing Marshall Biotechnology Co. Ltd.
Experimental method: on the day of the test, 6 beagle dogs were randomly grouped according to their body weights. The animals were fasted with water available for 14 to 18 hours one day before the administration of a test compound, and were fed 4 hours after the administration.
Sampling: Before and after the administration, 1.0 mL of blood was taken from the jugular veins or limb veins, and placed in an EDTAK2 centrifuge tube. Centrifugation was carried out at 5000 rpm at 4° C. for 10 min, and the plasma was collected.
(§3) Time points for plasma collection in IV&PO group: 0, 5 min, 15 min, 30 min, 1 h, 2 h, 4 h, 6 h, 8h, 10 h, 12h, and 24 h.
as §1

[4] = Pharmacokinetic experiment in monkeys; type: in vivo, cynomolgus monkeys; details: compared with the trifluoroacetate of LNP023, in words
Method: as §2, with “to cynomolgus monkeys” for “to beagle dogs”, “the monkeys” for “the beagle dogs”, “the monkeys.” for “the beagle dogs.”
Experimental animals: Male cynomolgus monkeys, 3-5 kg, 3-6 years old, 6 monkeys/compound. Purchased from Suzhou Xishan Biotechnology Inc.
Experimental method: on the day of the test, 6 monkeys were randomly grouped according to their body weights. The animals were fasted with water available for 14 to 18 hours one day before the administration of a test compound, and were fed 4 hours after the administration.
Sampling: before and after the administration, 1.0 mL of blood was taken from the limb veins, and placed in an EDTAK2 centrifuge tube. Centrifugation was carried out at 5000 rpm at 4° C. for 10 min, and the plasma was collected.
as §3, §1

Caco2 permeability test = type: in vitro ADME; details: human; Caco-2 monolayer, 2 μM, 2 h, pH 7.4
Method: (§4) The experiment used a monolayer of Caco-2 cells incubated in triplicate in a 96-well Transwell plate. […] Acetonitrile containing internal standard was then added to precipitate the protein. […] The integrity of the cell monolayer after 2 h of incubation was assessed by leakage of Lucifer Yellow.

Caco-2 cells = assay: Caco2 permeability test; type: in vitro ADME; details: Caco2, compared with the trifluoroacetate of LNP023, in words
Method: as §4

[5] = Stability in liver microsome (HLM); type: in vitro ADME, human; details: 0.50 mg/mL microsomal protein, 1.00 μM, NADPH, 37 °C
Method: (§5) The total volume of the incubation system was 100 μL, the medium was 100 mM phosphate buffer (PBS, pH 7.4), including liver microsomal protein with a final concentration of 0.50 mg/mL, 1.00 μM test substance and 1.00 mM NADPH, 37° C. water bath was used for incubation, and 300 μL of ice-cold acetonitrile containing internal standard was added to terminate the reaction after 0, 5, 10, 20, 30, and 60 min of reaction, respectively. The negative control was incubated with heat-inactivated liver microsomes of the corresponding species, and the incubation time points were 0 and 60 min respectively. The LC/MS/MS method was used to detect the concentration of the test substance in the sample and the remaining rate of the compound was calculated.

[6] = Stability in liver microsome (CLM); type: in vitro ADME, cynomolgus monkey; details: 0.50 mg/mL microsomal protein, 1.00 μM, NADPH, 37 °C
Method: as §5

[7] = Stability in liver microsome (DLM); type: in vitro ADME, dog; details: 0.50 mg/mL microsomal protein, 1.00 μM, NADPH, 37 °C
Method: as §5

[8] = Stability in liver microsome (RLM); type: in vitro ADME, rat; details: 0.50 mg/mL microsomal protein, 1.00 μM, NADPH, 37 °C
Method: as §5

[9] = Stability in liver microsome (MouLM); type: in vitro ADME, mouse; details: 0.50 mg/mL microsomal protein, 1.00 μM, NADPH, 37 °C
Method: as §5

FB, sequence (P00751 260-764 limits assumed): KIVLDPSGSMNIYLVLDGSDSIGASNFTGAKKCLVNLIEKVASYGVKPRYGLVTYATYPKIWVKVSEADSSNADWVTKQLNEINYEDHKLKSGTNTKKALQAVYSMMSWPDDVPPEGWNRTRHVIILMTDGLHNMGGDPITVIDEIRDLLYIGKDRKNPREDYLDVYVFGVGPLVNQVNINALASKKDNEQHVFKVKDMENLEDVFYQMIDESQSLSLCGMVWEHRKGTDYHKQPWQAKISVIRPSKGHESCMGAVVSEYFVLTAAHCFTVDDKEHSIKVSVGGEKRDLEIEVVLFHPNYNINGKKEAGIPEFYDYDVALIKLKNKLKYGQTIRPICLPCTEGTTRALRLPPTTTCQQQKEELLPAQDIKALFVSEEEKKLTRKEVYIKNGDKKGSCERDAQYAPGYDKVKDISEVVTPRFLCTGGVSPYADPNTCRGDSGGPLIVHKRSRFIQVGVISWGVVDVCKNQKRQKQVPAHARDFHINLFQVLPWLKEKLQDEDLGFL
FB, sequence (Q91132 23-649 partner limits assumed): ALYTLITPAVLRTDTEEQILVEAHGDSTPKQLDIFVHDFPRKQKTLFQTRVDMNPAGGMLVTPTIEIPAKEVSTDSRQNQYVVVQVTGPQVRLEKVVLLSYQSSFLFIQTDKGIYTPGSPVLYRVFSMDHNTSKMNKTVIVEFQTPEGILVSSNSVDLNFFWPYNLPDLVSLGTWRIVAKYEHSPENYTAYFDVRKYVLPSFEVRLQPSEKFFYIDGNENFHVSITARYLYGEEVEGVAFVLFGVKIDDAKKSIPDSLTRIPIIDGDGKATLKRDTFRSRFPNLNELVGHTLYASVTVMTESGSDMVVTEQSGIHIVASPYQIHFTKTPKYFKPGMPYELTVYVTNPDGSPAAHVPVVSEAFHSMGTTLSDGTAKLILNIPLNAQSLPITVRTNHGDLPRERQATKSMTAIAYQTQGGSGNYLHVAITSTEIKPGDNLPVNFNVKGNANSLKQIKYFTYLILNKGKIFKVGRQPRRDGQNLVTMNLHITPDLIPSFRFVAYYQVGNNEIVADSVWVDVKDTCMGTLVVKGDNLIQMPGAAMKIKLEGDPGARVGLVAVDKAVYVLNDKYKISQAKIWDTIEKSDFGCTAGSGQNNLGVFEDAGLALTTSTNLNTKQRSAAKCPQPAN
FB, sequence (Q91132 733-984 partner limits assumed): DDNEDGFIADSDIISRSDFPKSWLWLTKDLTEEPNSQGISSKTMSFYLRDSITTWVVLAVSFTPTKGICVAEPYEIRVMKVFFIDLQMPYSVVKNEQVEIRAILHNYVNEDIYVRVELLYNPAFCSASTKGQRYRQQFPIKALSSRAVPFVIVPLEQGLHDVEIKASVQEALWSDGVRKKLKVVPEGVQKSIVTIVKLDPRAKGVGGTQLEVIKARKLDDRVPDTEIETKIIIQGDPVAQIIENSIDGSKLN
FB, sequence (Q91132 1264-1642 partner limits assumed): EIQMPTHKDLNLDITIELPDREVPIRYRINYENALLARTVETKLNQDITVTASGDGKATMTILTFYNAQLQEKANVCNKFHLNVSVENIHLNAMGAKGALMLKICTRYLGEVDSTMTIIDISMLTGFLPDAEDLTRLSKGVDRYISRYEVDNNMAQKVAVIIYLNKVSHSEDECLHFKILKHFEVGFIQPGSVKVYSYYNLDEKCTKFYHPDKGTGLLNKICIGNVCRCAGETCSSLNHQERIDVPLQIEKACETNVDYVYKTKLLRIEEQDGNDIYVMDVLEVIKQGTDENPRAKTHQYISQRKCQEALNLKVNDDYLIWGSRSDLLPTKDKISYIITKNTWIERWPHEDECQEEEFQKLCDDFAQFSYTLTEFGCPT

bioavailability [2]	AUC(0-t) [2]	bioavailability [3]	AUC(0-t) [3]	half-life [3]	bioavailability in monkeys [4]	oral exposure in monkeys [4]	Papp A→B at 2 h, 2 μM (Caco2 permeability test)	Papp B→A at 2 h, 2 μM (Caco2 permeability test)	permeability (Caco-2 cells)	Remaining % (T = 60 min) HLM0.5 [5]	Remaining % (T = 60 min) CLM0.5 [6]	Remaining % (T = 60 min) DLM0.5 [7]	Remaining % (T = 60 min) RLM0.5 [8]	Remaining % (T = 60 min) MouLM0.5 [9]	SMILES	IC50 [1]	Inhibition rate of C3a levels in mice (C3a levels in mice; Dosage 30 mg/kg)	Inhibition rate of C3a levels in mice (C3a levels in mice; Dosage 60 mg/kg)	IC50 (FB)
															COc1cc(C)c2[nH]ccc2c1CN1CCC2(CCCO2)C[C@H]1c1ccc(C(=O)O)cc1 (single isomer, unassigned) [Trifluoroacetate of compound 2-b (diastereomer 2)]	< 200 nM	35.04%	73.12%	< 500 nM
81.5%	15900 ng·h/mL	62.6%	49300 ng·h/mL	20.9 h	higher	higher	2.17 ×10⁻⁶ cm/s	23.9 ×10⁻⁶ cm/s	better	>90%	>90%	>90%	>90%	>90%	COc1cc(C)c2[nH]ccc2c1CN1CC[C@@H](C2CC2)C[C@H]1c1ccc(C(=O)O)cc1 [Trifluoroacetate of compound 5 (diastereomer 1), 4-((2S)-4-cyclopropyl-1-((5-methoxy-7-methyl-1H-indol-4-yl)methyl)piperidin-2-yl)benzoic acid]	< 200 nM			
